Data taken from patent publication US4844894A, “Method of inhibiting the onset of septicemia and endotoxemia” (priority 1986, dated 1989).

How the values were obtained:
[1] = tested on: endotoxin from E. coli K235; assay: Non-septic endotoxemia: endotoxin from E. coli K235 challenge ip in mice; type: in vivo; settings: pre-treated with 100 ug MPL
Procedure: (§1) A model for non-septic endotoxemia is to inject mice intraperitoneally (ip) with endotoxin. […] Depending on the dose, death may occur within about 72 hours. The LD50 can be determined by injecting groups of mice with different doses of endotoxin, and noting the number of survivors in each group. The protective effect of a given treatment is evidenced by an increase in the LD50 of the endotoxin challenge.
(§2) In this embodiment, mice were injected ip on day 0 with either 100 ug MPL in 0.25 ml saline (treatment group) or else saline alone (control group). On day 3, mice in both groups received an ip injection containing one of several different doses of endotoxin (E. coli 0111:B 4). There were 8 mice at each endotoxin dose level. The doses for the control group were […] endotoxin. The doses for treatment group were 0.75, 1.00, 1.25, 1.50, 2.0, and 2.5 mg endotoxin. […] The LD50 for each group was calculated using the method of Reed and Meuench (ibid.). […] Since only 2 mice dies at the highest endotoxin dose in the treatment group, the LD50 the LD50 could not be calculated for this group. It is evident, however, that it would be well above 2.5 mg, probably around 5-6 mg. This would correspond to at least a 4 to 5 fold increase in the LD50 following treatment with MPL.
In another experiment the LD50 's for both the control and the treatment groups were successfully determined. The experimental design was essentially the same as that described above except that the endotoxin used was obtained from E. coli K235.

rabbits [2] = settings: Table B, ref (2); cited from earlier work
[3] = tested on: endotoxin (E. coli 0111:B 4); assay: Non-septic endotoxemia: endotoxin (E. coli 0111:B4) challenge ip in mice; type: in vivo; settings: 100 ug MPL ip day 0
Procedure: as §1, §2

E. coli 055B5 [4] = assay: Septic endotoxemia: challenge with 30 LD50's of E. coli 055B5 in mice; type: in vivo; settings: 25, 25 and 50 ug MPL ip on days 0, 1 and 2; challenge on day 2
Procedure: (§3) Injection of mice ip with live E. coli provides a good model of gram-negative sepsis and associated endotoxemia, since E. coli readily sheds endotoxin. In this model, a known quantity of live E. coli are injected, and the survivors are counted for an appropriate number of days. The effectiveness of a treatment is evidenced by an increase in the survivorship for a treated group.
In a manner similar to that employed in Example 3, 10 mice were given ip injections on days 0, 1 and 2 of 25, 25 and 50 ug MPL, respectively, corresponding to a total of 100 ug MPL for each mouse. Mice in the control group received only saline. On day 2, all mice received a challenge consisting of 30 LD50 's of E. coli 055B5. This corresponds to an overwhelming challenge dose. No mice in the control group survived, while 50% animals (5/10) in the treatment group survived.

[5] = relative to parent endotoxin; cited from earlier work
rabbits [6] = settings: Table B, refs (1), (2); cited from earlier work
Phosphorous content = type: physicochemical; settings: Percent by weight
E. coli 055B5 [7] = assay: Septic endotoxemia: challenge with 5 LD50's of live E. coli 055B5 in mice; type: in vivo; settings: 50 ug MPL ip on days 0 and 1; challenge on day 2
Procedure: as §3
In the experiment, 10 mice were given ip injections of 50 ug MPL on days 0 and 1. They therefore received a total of 100 ug MPL. The control group received only saline. All mice were challenged on day 2 with 5 LD50 's of E. coli 055B5 organisms, also injected ip. All control animals died, whereas all treated animals (10/10) survived.

rabbits [8] = settings: Table B, refs (1), (3); cited from earlier work
chick embryos = assay: Chick embryo 50% lethal dose assay (CELD50); type: in vivo
Procedure: A sensitive measure of endotoxin toxicity is the chick embryo 50% lethal dose assay (CELD50). In this test, chick embryos at 10 days of age are injected with varying doses of the material to be tested. […] Using the chick embryo test, a comparison was made of the toxicity of radiation-detoxified endotoxin with the parent endotoxin as well as with MPL.

septicemia = assay: Nonspecific resistance to septicemia induced in mice by cecal ligation and puncture; type: in vivo, NMRI mice; settings: 1 μg, ip, 24 hr prior surgery
Procedure: 14 NMRI mice were pretreated with one microgram of MPL administered by intraperitoneal injection. 24 hours later each of the mice underwent surgery wherein the cecum of each mouse was ligated and punctured to internally expose the mice to microorganisms capable of instigating the onset of septicemia. […] A second group of mice were subjected to surgery in precisely the same way without pretreatment with MPL.

[9] = 120 hrs after induction of septicemia

In the case of `CCCCCCCCCCCCCC(=O)OC(CCCCCCCCCCC)CC(=O)OC1C(NC(=O)CC(CCCCCCCCCCC)OC(=O)CCCCCCCCCCC)C(OCC2OC(O)C(NC(=O)CC(O)CCCCCCCCCCC)C(OC(=O)CC(O)CCCCCCCCCCC)C2O)OC(CO)C1OP(=O)(O)O` (stereo not shown) [MPL, Monophosphoryl Lipid A], the “LD50 of endotoxin in pre-treated mice” value [1] is reported as 1.16 mg, the “increase (factor) in LD50 of endotoxin” value [1] is reported as ~5 factor and the symptoms of endotoxemia [1] is reported as “did not show any of the usual symptoms of endotoxemia”. The LD50 in rabbits (rabbits [2]) was > 8,000 mcg/kg, the “mice dying at the highest endotoxin dose” value ([3]; 2.5 mg endotoxin day 3, 8 mice per dose level) was 2 mice and the “fold increase in LD50 of endotoxin following treatment” value ([3]; endotoxin ip day 3) was 4 to 5 fold. The “animals survived in treatment group” value (E. coli 055B5 [4]) was 5/10, the “survival, % of animals in treatment group” value (E. coli 055B5 [4]) was 50% and the “toxicity in all of the Table B assays, in words” value [5] was “only negligible toxicity”. The “Pyrogenicity in rabbits (difference between basic and maximal body temperature)” value (rabbits [6]) was 0 °C, the “Phosphorous Content” value (Phosphorous content) was 1.8% and the treated animals survived (E. coli 055B5 [7]) was 10/10. For the same compound, the “Local Shwartzman Reaction in rabbits (area of hemorrhagic lesion)” value (rabbits [8]) was < 10 mm^2, the “eggs killed in CELD50 test” value (chick embryos; at any dose, footnote to Table A) was “No eggs killed at any dose” and the CELD50 (chick embryos; chick embryos at 10 days of age, survivors at 24 hours) was > 20 µg. The “toxicity in CELD50 assay, in words” value (chick embryos; text conclusion from Table A) was “essentially no toxicity”, the “effect on onset of septicemia, in words” value (septicemia) was “inhibits the onset of septicemia” and the “% Survival” value (septicemia; [9]) was 71%. The Dead/Total (septicemia; [9]) was 4/14.
